{
  "source": "paper PMC12903969",
  "about": "“Discovery of a Novel and Potent Kir4.1 Inhibitor as a Safe and Rapid‐Onset Antidepressant Agent in Mice” (Advanced Science, 2025)",
  "key": {"C57BL/6J mice [1]": {"system": "C57BL/6J mice", "test": "Novelty-suppressed feeding test (NSFT)", "assay_type": "in vivo", "procedure": "The mice were individually housed in new cages and deprived of food for 24 h. The testing equipment was a brightly lit plastic box measuring 40 × 40 × 30 cm^3 with a light intensity of 1100–1200 lux. Each mouse was positioned in a corner of the device with one food pellet located at the center. The latency to start chewing food was recorded within 5 min. Immediately thereafter, the mice were placed back in their home cage with pre‐measured food, and the amount consumed in the next 5 min was used as a baseline to account for appetite changes that might affect the outcome."}, "C57BL/6J mice [2]": {"system": "C57BL/6J mice", "test": "Open field test (OFT) after chronic administration", "assay_type": "in vivo", "conditions": "chronic 10 mg kg−1 per day", "procedure": "This test was used to assess anxiety‐related behaviors in the mice. C57BL/6J mice were individually habituated to a 40 × 40 × 40 cm^3 open field arena under dim light for […]. Locomotor activity during the final 5 min was digitally recorded (30 fps) and analyzed using Tracking Master (Future Life Science (Shanghai) Co., Ltd., Shanghai, China). The primary endpoints included the total ambulatory distance (cm) and center‐zone exploration frequency (20 × 20 cm^2 central area)."}, "mice [3]": {"system": "mice", "test": "Y-maze", "assay_type": "in vivo", "conditions": "chronic 10 mg kg−1 per day", "procedure": "This test was designed to evaluate spatial working memory. Briefly, mice were individually placed in a symmetrical Y‐maze and allowed to explore for 8 min. Entries were counted only when both hind paws crossed the arm threshold. Correct spatial alternation was defined as an entry into all three arms in an uninterrupted sequence (e.g., ABC, BCA or CAB each representing one alternation). The alternation percentage was derived as: [correct alternations/(total entries–2)] × 100%. After each session, the walls and floor of the maze were wiped with 75% ethanol and allowed to dry before the next animal was tested."}, "mice [4]": {"system": "mice", "test": "Shuttle box test (SBT)", "assay_type": "in vivo", "procedure": "This test was designed to measure learning and memory function in rodents. The shuttle box consists of two compartments connected by a freely passable gate. The mice were allowed to explore the test chamber freely for 5 min before the test to eliminate exploratory reflexes. Each mouse was placed in one compartment of the shuttle box. The conditioning protocol began with a 5‐s conditioned stimulus presentation of light (200 lux) and auditory tone (100 dB, 1000 Hz), followed immediately by a 3‐s footshock (300 µA) unconditioned stimulus. Escape to the opposite compartment during the conditioned stimulus presentation was scored as an active avoidance response, whereas escape occurring only after shock onset was recorded as […]. […] Each test session consisted of 40 trials with 10‐s inter‐trial intervals, with the number of active avoidance responses systematically recorded."}, "mice [5]": {"system": "mice", "test": "Rotarod test (RT)", "assay_type": "in vivo", "conditions": "chronic 10 mg kg−1 per day", "procedure": "The rotarod test was designed to evaluate the coordination and motor performance of rodents. The speed and time were set for the rod rotators. All experimental mice were allowed to adapt to a lower speed (5 rpm). For the formal test, the mice were placed on a rod spinning at 20 rpm, and the duration that the mice were able to hold on the rod at this speed was recorded. The maximum test duration was 20 min."}, "mice [6]": {"system": "mice", "test": "Treadmill test (TT)", "assay_type": "in vivo", "conditions": "chronic 10 mg kg−1 per day", "procedure": "This test was designed to quantify locomotor endurance in rodents. The time (300 s) and speed (maximum: 30 rpm) parameters for the treadmill were set using a digital panel and the mice were placed in lanes. Gentle electrical probes (0.3 mA) served as motivational stimuli. Total distance traveled was automatically recorded using rotary encoder integration."}, "mice [7]": {"system": "mice", "test": "21-day chronic administration: body weight, organ weight, serum biochemistry"}, "C57BL/6J mice after CSDS [8]": {"system": "C57BL/6J mice after CSDS", "test": "Chronic social defeat stress (CSDS) model, sucrose preference test", "assay_type": "in vivo", "procedure": "(§1) The 10‐day CSDS paradigm was conducted as previously described.^[ [24] ^] CD‐1 aggressive mice were singly housed in defeat cages on one side of a perforated plexiglass partition 24 h before the defeat session. Experimental C57BL/6J mice were placed daily on the resident cage side of a novel CD‐1 aggressor that rapidly initiated a physical attack on the intruder. After 10‐min of social defeat, the intruder mice were housed on the opposite side of the partition within a shared home cage, experiencing further sensory contact for the subsequent 24 h. In contrast, control mice were maintained in their home cages and allowed to explore the empty defeat cages for 10 min each day.\nMice were individually housed with two identical bottles containing either 1% sucrose solution or tap water for 24 h. The bottles were then replaced to eliminate potential positional bias, followed by an additional 24‐h period with the same solutions. Subsequently, the mice were provided with tap water for 24 h. During the experimental phase, new bottles filled with either 1% sucrose solution or tap water were presented for 24 h, and the bottles were changed every 12 h. The bottles were weighed both before and after the 24‐h test to assess consumption of each solution."}, "C57BL/6J mice after CSDS [9]": {"system": "C57BL/6J mice after CSDS", "test": "CSDS model, forced swim test", "assay_type": "in vivo", "procedure": "as §1\nMice were placed individually in a transparent glass cylinder (25 cm high, 10 cm wide) filled with water (temperature 23–25 °C) to a depth of 10 cm, and prevented from making contact with the bottom. Mice behaviors were videotaped from each side. The observation period lasted for 6 min, with the final 4 min used to measure immobile behavior, which was processed using the AnyMaze Tracking System (Stoelting)."}, "C57BL/6J mice after CSDS [10]": {"system": "C57BL/6J mice after CSDS", "test": "CSDS model, social interaction test", "assay_type": "in vivo", "conditions": "single i.p. injection 10 mg kg−1", "procedure": "as §1\nC57BL/6J mice, comprising both control and experimental groups, were placed individually into the social open field with a plexiglass enclosure positioned along the side wall. Movement parameters, including the time spent in the interaction zone, corner zones, and locomotion, were monitored and analyzed over the two test sessions using the AnyMaze Tracking System. In the first session, the mice freely explored the arena for 2.5 min. Then, a new aggressive CD‐1 mouse was introduced into the plexiglass enclosure, and the experimental mice returned to the arena for the second 2.5‐min session. The social interaction ratio was determined as the ratio between the time the experimental mice spent in the interaction zone when the target CD‐1 was present and the time spent in the zone when it was absent."}, "C57BL/6J mice [11]": {"system": "C57BL/6J mice", "test": "DOI-induced head twitch response (HTR)", "assay_type": "in vivo", "conditions": "10 mg kg−1, 30-min test period", "procedure": "Male C57BL/6J mice were habituated to the testing chambers for 30 min and 24 h after receiving acute doses of (S)‐ketamine (10 mg kg^−1, i.p.) or JX3212 (10 mg kg^−1, i.p.). Thirty minutes later, the mice received DOI at a dose of 5 mg kg^−1 (i.p.), and the head‐twitch response was scored over 30 min."}, "[12]": {"conditions": "serum, 10 mg/kg, 21-day chronic administration, individual animals"}, "[13]": {"conditions": "single i.p. injection 10 mg kg−1"}},
  "note": "Values joined by “and” are separate entries in the source; they are usually repeats but may differ in a detail not shown here. Identical values can stand only once.",
  "data": [
    {"smiles": "CN(C)CCCN1c2ccccc2CCc2ccccc21", "note": "[imipramine]", "values": [
      {"measurement": "NSFT antidepressant-like effect (in words)", "setting": "C57BL/6J mice [1]; imipramine 15 mg kg−1, single administration", "result": "failed to produce antidepressant‐like effects"},
      {"measurement": "food intake in home cage after NSFT (in words)", "setting": "C57BL/6J mice [1]; repeated administration, vs vehicle", "result": "significant increase in food intake"},
      {"measurement": "NSFT antidepressant-like response after repeated administration (in words)", "setting": "C57BL/6J mice [1]; seven days, imipramine 15 mg kg−1, JX3212 3/10 mg kg−1", "result": "elicited significant antidepressant‐like responses"},
      {"measurement": "OFT total and central distance traveled (in words)", "setting": "C57BL/6J mice [2]", "result": "no pronounced differences"},
      {"measurement": "Y-maze alternation percentage vs vehicle (in words)", "setting": "mice [3]", "result": "significantly reduced"},
      {"measurement": "shuttle box active avoidance responses (in words)", "setting": "mice [4]; chronic 10 mg kg−1 per day", "result": "no significant differences"},
      {"measurement": "SBT active avoidance responses, single mice", "setting": "mice [4]; chronic 10 mg/kg per day (Fig 5G)", "result": "27 and 32 and 29 and 20 and 23 and 22"},
      {"measurement": "rotarod falling latency vs vehicle (in words)", "setting": "mice [5]", "result": "notably reduced falling latency"},
      {"measurement": "treadmill running distance vs vehicle (in words)", "setting": "mice [6]", "result": "notably reduced"},
      {"measurement": "body weight during 21-day chronic administration (in words)", "setting": "mice [7]; 10 mg kg−1 per day, vs vehicle", "result": "marked increase in body weight"},
      {"measurement": "Body weight", "setting": "mice [7]; 10 mg/kg, day 7, individual animals", "result": "24.5 (2×) and 25.5 (2×) and 25.8 and 25.3 and 24.2 and 25.4 and 24.9 and 26"},
      {"measurement": "Body weight", "setting": "mice [7]; 10 mg/kg, day 8, individual animals", "result": "25.5 and 24.5 and 24.8 (2×) and 26.1 and 24.4 and 25.3 (2×) and 26.2 and 25.8"},
      {"measurement": "Body weight", "setting": "mice [7]; 10 mg/kg, day 9, individual animals", "result": "26.3 and 25.3 (2×) and 26 and 25.4 and 25.8 and 26.4 and 24.8 and 25 and 24.6"},
      {"measurement": "Body weight", "setting": "mice [7]; 10 mg/kg, day 10, individual animals", "result": "26.1 and 26 (2×) and 25.3 (3×) and 25.5 and 25.2 and 26.3 and 24.9"},
      {"measurement": "Body weight", "setting": "mice [7]; 10 mg/kg, day 11, individual animals", "result": "26.1 (2×) and 25.7 (2×) and 24.8 and 24.6 and 24.4 and 25.4 and 26 and 24.7"},
      {"measurement": "Body weight", "setting": "mice [7]; 10 mg/kg, day 12, individual animals", "result": "26.1 and 26.9 and 25 (2×) and 27.4 and 25.8 (2×) and 26.2 and 24.9 and 26.6"},
      {"measurement": "Body weight", "setting": "mice [7]; 10 mg/kg, day 13, individual animals", "result": "25.3 (3×) and 26.2 and 26.5 and 27.2 and 26.4 and 27.3 and 25.6 (2×)"},
      {"measurement": "Body weight", "setting": "mice [7]; 10 mg/kg, day 14, individual animals", "result": "25.3 and 25.8 and 26.8 (2×) and 25.7 and 26.7 and 27.4 and 26.6 and 26.4 and 27.1"},
      {"measurement": "Body weight", "setting": "mice [7]; 10 mg/kg, day 15, individual animals", "result": "27.1 and 25.5 and 25.4 and 25.6 and 26.4 (2×) and 25.8 and 27.3 and 26.3 and 26"},
      {"measurement": "Body weight", "setting": "mice [7]; 10 mg/kg, day 16, individual animals", "result": "27.2 (2×) and 26.3 and 26.5 and 25.8 and 26.7 and 25.4 and 26.1 and 26.9 and 25.7"},
      {"measurement": "serum alanine aminotransferase level (in words)", "setting": "mice [7]; 21-day administration", "result": "significant increase in alanine aminotransferase levels"},
      {"measurement": "serum aspartate aminotransferase and urea levels (in words)", "setting": "mice [7]; 21-day administration", "result": "comparable"},
      {"measurement": "serum creatinine level (in words)", "setting": "mice [7]; 21-day administration", "result": "marked decreases in creatinine levels"},
      {"measurement": "ALT", "setting": "mice [7]; [12]", "result": "39 and 34 and 31 and 33 and 48 and 37 and 52 and 40"},
      {"measurement": "AST", "setting": "mice [7]; [12]", "result": "151 and 169 and 124 and 111 and 168 and 222 and 112 and 198 and 207"},
      {"measurement": "Cr", "setting": "mice [7]; [12]", "result": "19 and 18 and 20 and 23 and 22"}
    ]},
    {"smiles": "CN[C@]1(c2ccccc2Cl)CCCCC1=O", "note": "[(S)‐ketamine]", "values": [
      {"measurement": "NSFT latency to feed (in words)", "setting": "C57BL/6J mice [1]; single dose 10 mg kg−1 i.p., 1 h after administration", "result": "significantly reduced the latency to feed"},
      {"measurement": "SPT sucrose preference after CSDS, single mice", "setting": "C57BL/6J mice after CSDS [8]; 10 mg/kg (Fig 3H)", "result": "0.9625 and 0.9959 and 0.9967 and 0.7227 and 0.9713 and 0.6431 and 0.7826 and 0.9953"},
      {"measurement": "CSDS: sucrose preference in SPT (in words)", "setting": "C57BL/6J mice after CSDS [8]; [13]", "result": "increased sucrose preference"},
      {"measurement": "FST immobility time after CSDS, single mice", "setting": "C57BL/6J mice after CSDS [9]; 10 mg/kg (Fig 3I)", "result": "77.33 and 102.37 and 98.48 and 95.78 and 108.86 and 103.57 and 122.58"},
      {"measurement": "CSDS: immobility in FST (in words)", "setting": "C57BL/6J mice after CSDS [9]; [13]", "result": "no significant impact"},
      {"measurement": "CSDS: time spent in corners in SIT (in words)", "setting": "C57BL/6J mice after CSDS [10]", "result": "shorter duration spent in the corners"},
      {"measurement": "number of DOI-induced head twitches vs vehicle (in words)", "setting": "C57BL/6J mice [11]", "result": "significantly more"}
    ]}
  ]
}
